Laboratory results: PubChem BioAssay (NCI)
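Compound exposure: 48 hours, 5 concentrations, 96-well plates. The concentration for full growth arrest is given as TGI.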

Key:
Test in all cases: growth of human tumour cells (NCI), 48 h
[1] = system: NCI/ADR-RES ovarian
[2] = system: EKVX NSCLC
[3] = system: CAKI-1 renal
[4] = system: DU-145 prostate
[5] = system: HOP-62 NSCLC
[6] = system: SK-MEL-2 melanoma
[7] = system: OVCAR-5 ovarian
[8] = system: UACC-257 melanoma
[9] = system: SF-539 CNS
[10] = system: HS 578T breast
[11] = system: HT29 colon
[12] = system: MDA-N
[13] = system: U251 CNS
[14] = system: IGROV1 ovarian
[15] = system: OVCAR-8 ovarian
[16] = system: OVCAR-3 ovarian
[17] = system: MALME-3M melanoma
[18] = system: LOX IMVI melanoma
[19] = system: HOP-92 NSCLC
[20] = system: SF-268 CNS
[21] = system: MDA-MB-435
[22] = system: MOLT-4 leukemia
[23] = system: NCI-H460 lung
[24] = system: NCI-H522 lung
[25] = system: RPMI-8226 leukemia
[26] = system: SNB-19 CNS
[27] = system: K-562 leukemia
[28] = system: NCI-H23 lung
[29] = system: SNB-75 CNS
[30] = system: SF-295 CNS
[31] = system: HCT-15 colon
[32] = system: HCT-116 colon
[33] = system: BT-549 breast
[34] = system: UACC-62 melanoma
[35] = system: SK-OV-3 ovarian
[36] = system: SR leukemia
[37] = system: ACHN renal
[38] = system: SW-620 colon
[39] = system: M14 melanoma
[40] = system: MCF7 breast
[41] = system: SN12C renal
[42] = system: SK-MEL-28 melanoma
[43] = system: A549 NSCLC
[44] = system: CCRF-CEM leukemia
[45] = system: 786-0 renal
[46] = system: TK-10 renal
[47] = system: HCC-2998 colon
[48] = system: OVCAR-4 ovarian
[49] = system: HL-60(TB) leukemia
[50] = system: COLO 205 colon
[51] = system: MDA-MB-231 breast
[52] = system: UO-31 renal
[53] = system: KM12 colon
[54] = system: PC-3 prostate
[55] = system: NCI-H226 lung
[56] = system: SK-MEL-5 melanoma
[57] = system: RXF 393 renal
[58] = system: A498 renal

O=CN1CCN(c2ccc3ccc(=O)[nH]c3n2)CC1
TGI [1]: > 100 µM | TGI [2]: > 100 µM | TGI [3]: > 100 µM | TGI [4]: > 100 µM | TGI [5]: > 100 µM | TGI [6]: > 100 µM | TGI [7]: > 100 µM | TGI [8]: > 100 µM | TGI [9]: > 100 µM | TGI [10]: > 100 µM | TGI [11]: > 100 µM | TGI [12]: > 100 µM | TGI [13]: > 100 µM | TGI [14]: > 100 µM | TGI [15]: > 100 µM | TGI [16]: > 100 µM | TGI [17]: > 100 µM | TGI [18]: > 100 µM | TGI [19]: > 100 µM | TGI [20]: > 100 µM | TGI [21]: > 100 µM | TGI [22]: > 100 µM | TGI [23]: > 100 µM | TGI [24]: > 100 µM | TGI [25]: > 100 µM | TGI [26]: > 100 µM | TGI [27]: > 100 µM | TGI [28]: > 100 µM | TGI [29]: > 100 µM | TGI [30]: > 100 µM | TGI [31]: > 100 µM | TGI [32]: > 100 µM | TGI [33]: > 100 µM | TGI [34]: > 100 µM | TGI [35]: > 100 µM | TGI [36]: > 100 µM | TGI [37]: > 100 µM | TGI [38]: > 100 µM | TGI [39]: > 100 µM | TGI [40]: > 100 µM | TGI [41]: > 100 µM | TGI [42]: > 100 µM | TGI [43]: > 100 µM | TGI [44]: > 100 µM | TGI [45]: > 100 µM | TGI [46]: > 100 µM | TGI [47]: > 100 µM | TGI [48]: > 100 µM | TGI [49]: > 100 µM | TGI [50]: > 100 µM | TGI [51]: > 100 µM | TGI [52]: > 100 µM | TGI [53]: > 100 µM | TGI [54]: > 100 µM | TGI [55]: > 100 µM

C=CCOCC1C2CCC3(OCCO3)C21 (configuration not stated)
TGI [1]: > 100 µM | TGI [2]: > 100 µM | TGI [3]: 87.5 µM | TGI [4]: > 100 µM | TGI [5]: > 100 µM | TGI [6]: > 100 µM | TGI [7]: > 100 µM | TGI [8]: > 100 µM | TGI [9]: > 100 µM | TGI [11]: > 100 µM | TGI [12]: > 100 µM | TGI [13]: > 100 µM | TGI [14]: > 100 µM | TGI [15]: > 100 µM | TGI [16]: > 100 µM | TGI [17]: > 100 µM | TGI [18]: > 100 µM | TGI [19]: > 100 µM | TGI [20]: > 100 µM | TGI [21]: > 100 µM | TGI [22]: > 100 µM | TGI [23]: > 100 µM | TGI [24]: > 100 µM | TGI [25]: > 100 µM | TGI [26]: > 100 µM | TGI [27]: > 100 µM | TGI [28]: > 100 µM | TGI [29]: > 100 µM | TGI [56]: > 100 µM | TGI [30]: > 100 µM | TGI [31]: > 100 µM | TGI [32]: > 100 µM | TGI [33]: > 100 µM | TGI [34]: > 100 µM | TGI [35]: > 100 µM | TGI [36]: > 100 µM | TGI [37]: > 100 µM | TGI [38]: > 100 µM | TGI [39]: > 100 µM | TGI [40]: > 100 µM | TGI [41]: > 100 µM | TGI [42]: > 100 µM | TGI [43]: > 100 µM | TGI [44]: > 100 µM | TGI [45]: > 100 µM | TGI [46]: > 100 µM | TGI [57]: > 100 µM | TGI [47]: > 100 µM | TGI [48]: > 100 µM | TGI [50]: > 100 µM | TGI [51]: > 100 µM | TGI [52]: 75.2 µM | TGI [53]: > 100 µM | TGI [54]: > 100 µM | TGI [55]: > 100 µM

Nc1nc(Cl)c(CO)c(NCC2(CO)CCC2)n1
TGI [1]: > 100 µM | TGI [2]: > 100 µM | TGI [3]: > 100 µM | TGI [4]: > 100 µM | TGI [5]: > 100 µM | TGI [7]: > 100 µM | TGI [8]: > 100 µM | TGI [9]: > 100 µM | TGI [10]: > 100 µM | TGI [11]: > 100 µM | TGI [12]: > 100 µM | TGI [13]: > 100 µM | TGI [14]: > 100 µM | TGI [15]: > 100 µM | TGI [16]: > 100 µM | TGI [17]: > 100 µM | TGI [18]: > 100 µM | TGI [19]: > 100 µM | TGI [20]: > 100 µM | TGI [21]: > 100 µM | TGI [22]: > 100 µM | TGI [23]: > 100 µM | TGI [24]: > 100 µM | TGI [25]: > 100 µM | TGI [26]: > 100 µM | TGI [27]: > 100 µM | TGI [58]: > 100 µM | TGI [28]: > 100 µM | TGI [29]: > 100 µM | TGI [56]: > 100 µM | TGI [30]: > 100 µM | TGI [31]: > 100 µM | TGI [32]: > 100 µM | TGI [33]: > 100 µM | TGI [36]: > 100 µM | TGI [37]: > 100 µM | TGI [38]: > 100 µM | TGI [40]: > 100 µM | TGI [41]: > 100 µM | TGI [42]: > 100 µM | TGI [43]: > 100 µM | TGI [44]: > 100 µM | TGI [45]: > 100 µM | TGI [46]: > 100 µM | TGI [57]: > 100 µM | TGI [47]: > 100 µM | TGI [48]: > 100 µM | TGI [49]: > 100 µM | TGI [50]: > 100 µM | TGI [51]: > 100 µM | TGI [52]: > 100 µM | TGI [53]: > 100 µM | TGI [54]: > 100 µM | TGI [55]: > 100 µM

COC1OC2COC(=O)c3cc(O)c(O)c(O)c3-c3c(cc(O)c(O)c3O)C(=O)OC2C(O)C1O (configuration not stated)
TGI [1]: > 100 µM | TGI [2]: > 100 µM | TGI [3]: > 100 µM | TGI [4]: > 100 µM | TGI [5]: > 100 µM | TGI [6]: > 100 µM | TGI [7]: > 100 µM | TGI [8]: > 100 µM | TGI [9]: > 100 µM | TGI [10]: > 100 µM | TGI [11]: > 100 µM | TGI [12]: 59.2 µM | TGI [13]: > 100 µM | TGI [14]: > 100 µM | TGI [15]: > 100 µM | TGI [16]: > 100 µM | TGI [17]: > 100 µM | TGI [18]: 60 µM | TGI [20]: > 100 µM | TGI [21]: 94.8 µM | TGI [22]: > 100 µM | TGI [23]: > 100 µM | TGI [24]: > 100 µM | TGI [25]: > 100 µM | TGI [26]: > 100 µM | TGI [27]: > 100 µM | TGI [28]: > 100 µM | TGI [29]: > 100 µM | TGI [56]: > 100 µM | TGI [30]: 37.8 µM | TGI [31]: > 100 µM | TGI [32]: > 100 µM | TGI [33]: > 100 µM | TGI [34]: 47.1 µM | TGI [35]: > 100 µM | TGI [37]: > 100 µM | TGI [38]: 57.9 µM | TGI [39]: > 100 µM | TGI [40]: > 100 µM | TGI [41]: 30.1 µM | TGI [42]: > 100 µM | TGI [43]: > 100 µM | TGI [44]: > 100 µM | TGI [45]: > 100 µM | TGI [46]: > 100 µM | TGI [57]: > 100 µM | TGI [48]: > 100 µM | TGI [50]: > 100 µM | TGI [51]: > 100 µM | TGI [52]: > 100 µM | TGI [53]: > 100 µM | TGI [54]: > 100 µM | TGI [55]: > 100 µM
